Key:
Format in all cases: cell-based, human
[1] = tested on: TTP expression in PLC/PRF/5 and SK-Hep1 cells; assay: TGFβ1-mediated TTP induction with or without AzadC (RT-PCR)
Description: (§1) Total RNA was extracted from the HCC cell lines by using RNeasy mini kit (QIAGEN, USA). Distilled water was added to 1 μg of the total RNA and 1 μl of oligo-d(T) (Invitrogen, USA, 0.5 μg/μl) to make the total volume of the mixture 50 μl, followed by RT-PCR in AccuPower RT-premix (Bioneer, Korea). Before RT-PCR, cDNA was synthesized as follows: at 70° C. for 5 minutes, at 4° C. for 5 minutes, at 42° C. for 60 minutes, at 94° C. for 5 minutes, and at 4° C. for 5 minutes to produce cDNA. PCR was performed by using the obtained cDNA (3˜5 μl) or distilled water (negative control) as a template with the primer set as shown in Table 1 and PCR Master Mix (Promega, USA). PCR conditions were as follows: pre-denaturation at 95° C. for 5 minutes, denaturation at 95° C. for 45 seconds, annealing at 65° C. for […], polymerization at 72° C. for 45 seconds, 35 cycles from denaturation to polymerization, final extension at 72° C. for 5 minutes, and cooling at 4° C. The amplified product was quantified via standardization with β-actin.
TGFβ1 (R&D systems, USA) was treated thereto at the concentration of 5 μg/l for 0, 0.5, 1, 1.5, 3, 6, and 12 hours.

[2] = tested on: TTP promoter; assay: TTP promoter luciferase reporter assay; details: SK-Hep1 cells; no AzadC
Description: To confirm that TTP expression is directly controlled by methylation of the #2 CpG site, the present inventors examined the transcriptional activity of the TTP promoter region in relation to the methylation status of the #2 CpG site using luciferase reporter assays.
Luciferase assays were performed using the Promega Luciferase Assay System (Promega, USA), according to the manufacturer's protocol. Luciferase reporter constructs were generated by amplifying TTP promoter regions from normal human genomic DNA (BioChain, USA) using the primer sets shown in Table 5 according to the method of Example <1-2>.
As a result, wild-type promoter (WT), a single base-substituted promoter (C→T), and TRR-deleted promoter (Del) were constructed. These promoters were cloned into the KpnI/BglII sites of pGL3-basic vector (Promega, USA). Ligated products were amplified in E. coli. After purification, the ligated products were transfected into SK-Hep1 cells by using LipofectAMINE Plus reagent (Invitrogen). Specifically, the luciferase reporter constructs (0.25 μg) were co-transfected with a control plasmid (0.05 μg) encoding renilla into 1×10^5 cells/well in 12-well plates. At that time, AzadC was treated 12 hours before the transfection. After treating with TGFβ1, luciferase activities were measured using a luminometer (Berthold Lumat LB9501, Bad Wildbad, Germany). […]

[3] = tested on: RNAPII binding to the TTP locus; assay: ChIP analysis of RNAPII binding to the TTP locus; details: PLC/PRF/5 cells; regardless of AzadC treatment
Source text: To establish the molecular mechanism of epigenetic regulation of TTP, the present inventors estimated the levels of different forms of phosphorylated RNAPII (RNA polymerase II) proteins bound to the TTP locus by ChIP (chromatin immunoprecipitation) analysis, i.e., unphosphorylated form (unP) as a measure of transcriptional initiation, and those phosphorylated at serine 5 (pS5) and serine 2 (pS2) of the carboxy-terminal repeat domain as a measure of promoter escape/capping and transcriptional elongation, respectively.
(§2) ChIP analysis was performed using a specific assay kit (Millipore, USA) according to manufacturer's specifications. SK-Hep1 and PLC/PRF/5 cells were pre-treated or not treated with AzadC for 72 hours, to which TGFβ1 was additionally treated or not treated. The cells were treated with formaldehyde, leading to the binding of DNA to the protein (DNA conjugated protein), followed by cell lysis. After DNA fractionation, the antibody to RNAPII protein shown in Table 7 was added thereto, followed by reaction at 4° C. for overnight. The antibody was isolated by adding 50 μl of Protein A/G PLUS-Agarose. At this time, the DNA specifically bound to the antibody was purified. The purified DNA proceeded to PCR using the primer sets of Table 8.

[4] = tested on: acetylation of histones H3 and H4 at TRR; assay: ChIP analysis of histone H3 and H4 acetylation at TRR; details: PLC/PRF/5 cells; regardless of AzadC pretreatment; P<0.05
Description: as §2
Chromatin is basically composed of histones and DNA. The histone status, that is, the methylation or acetylation status of histones is involved in the regulation of gene expression. Transcriptional activity is additionally dependent on the acetylation level of histones H3 and H4 in the promoter region. Moreover, TGFβ1-mediated transcription activation requires H3 acetylation (Ross S et al., EMBO J 25:4490-4502, 2006). Therefore, information about the transcriptional activity of the promoter region can be obtained by using the antibody against acetylated histone. […]

[5] = tested on: phospho-SMAD2/3 binding to TRR; assay: ChIP analysis of phosphorylated SMAD2/3 binding to TRR; details: both SK-Hep1 and PLC/PRF/5 cell lines
Description: as §2
The present inventors performed ChIP analysis using the antibodies shown in Table 9 in the same manner as described in Example <6-1> in order to investigate the bindings of phosphorylated SMAD2/3, transcription inhibitor, methyl DNA binding protein, and DNMT (DNA methyltransferase), which are important factors involved in TGFβ1 signal transduction, in TRR (a). At this time, input was a part of cell extract obtained after fixing the cells in formaldehyde and DNA fractionation, which is the status right before immunoprecipitation with antibody.

[6] = tested on: c-Myc mRNA; assay: c-Myc mRNA level after TGFβ1 (RT-PCR)
Description: as §1
SK-Hep1 and PLC/PRF/5 cells which had been pre-treated or not treated with AzadC for 72 hours were treated additionally with TGFβ1 for 0, 0.5, 1.0, 1.5, 2.0, and 2.5 hours. Then RT-PCR was performed with the cells by using the primer sets of Table 10 in the same manner as described in Example <1-2>.

[7] = tested on: SK-Hep1 and PLC/PRF/5 cells; assay: Cell growth by MTT assay and crystal violet staining; details: TGFβ1 96 hours
Description: (§3) MTT assay and crystal violet staining were performed with the cells. MTT (methylthiazoletetrazolium; Sigma-Aldrich) assay was performed by the informed technique (Mosmann T, J Immunol Methods 65:55-63, 1983) using μQuant Universal Microplate Spectrophotometer (Biotek Instruments, USA) at 570 nm. For crystal violet staining, the cells were fixed in 10% formaldehyde and stained in 10% crystal violet solution for 10 min at room temperature.

[8] = tested on: PLC/PRF/5 cells; assay: Cell cycle by FACS after TTP knock-down
Description: (§4) Lentiviral-based short hairpin RNAs (shRNAs) against TTP (Sigma-Aldrich; […] CTTTTT: SEQ. ID. NO. 40) or control shRNA targeting eGFP (Sigma-Aldrich) were transfected into PLC/PRF/5 cells and selected with 1 mg/l puromycin (Invitrogen). The selected PLC/PRF/5 transfectants were additionally treated with TGFβ1 for 0, 0.5, 1.0, 1.5, 2.0, and 2.5 hours. To investigate the half-life of c-Myc mRNA, actinomycin D was treated for 0, 15, 30, […], 60, and 75 minutes, and RT-PCR was performed with the cells.
FACS was performed with the cells treated in Example <7-4>.

[9] = tested on: c-Myc mRNA in PLC/PRF/5 cells; assay: c-Myc mRNA degradation and half-life after TTP knock-down (RT-PCR, actinomycin D)
Description: as §4

[10] = tested on: PLC/PRF/5 cells; assay: Cell growth after TTP knock-down (MTT, crystal violet staining)
Description: as §3, with “SK-Hep1 and PLC/PRF/5 cells were pre-treated or not treated with AzadC for 72 hours, to which TGFβ1 was additionally treated or not treated for 96 hours. MTT assay” for “MTT assay”
as §4
Western blotting was performed with the cells treated in Example <7-4> in the same manner as described in Example <7-2-1> to investigate the levels of c-Mycand p21^Cip1. MTT and crystal violet staining were also performed in the same manner as described in Example <7-2-2>.

[11] = PLC/PRF/5 cells (#2 CpG not methylated), TGFβ1 5 μg/l
[12] = PLC/PRF/5 cells, both before and after TGFβ1 treatment

TGFβ1: Transforming growth factor beta 1, a multifunctional cytokine (R&D systems)
time of peak TTP expression after TGFβ1 treatment [1, 11]: 1 h
time to increase of TTP expression after TGFβ1 treatment [1, 11]: ≤ 30 min
induction of TTP expression ([1]; SK-Hep1 cells (high #2 CpG methylation), TGFβ1 alone 5 μg/l): not induced
responsiveness of wild-type TTP promoter (WT) to TGFβ1, luciferase [2]: not responsive
binding of RNAPII proteins to the TTP locus [3]: significantly increased the binding of RNAPII proteins
acetylation of histones H3 and H4 at TRR (region a) [4]: significantly increased
binding of phospho-SMAD2/3 to TRR [5]: TGFβ1-dependent binding of phospho-SMAD2/3 to TRR was observed
c-Myc level ([6]; PLC/PRF/5 cells, TGFβ1 0-2.5 hours): rapidly decreased from 1 hour after TGFβ1 treatment
c-Myc level decrease ([6]; SK-Hep1 cells, TGFβ1 without AzadC): not in SK-Hep1 cells
cell growth [7]: phenotypic growth inhibition
size of the G2/M population following TGFβ1 treatment ([8]; PLC/PRF/5 control cells (control shRNA)): decreased significantly

TTP knock-down: Lentiviral-based short hairpin RNA against TTP (Sigma-Aldrich), SEQ. ID. NO. 40, transfected into PLC/PRF/5 cells (CCGGGCTTCGCCAGAGCATCAGCTTCTCGAGAAGCTGATGCTCTGGCGAAGCTTTTT; expressed or natural sequence)
half-life of c-Myc mRNA ([9]; in the presence of actinomycin D, control 24 min): 51 min
c-Myc mRNA degradation after TGFβ1 treatment ([9]; shRNA-mediated knock-down of TTP): significantly retarded c-Myc mRNA degradation
growth inhibitory effect of TGFβ [10]: blocking the growth inhibitory effect of TGFβ
growth rate [10]: elevated the growth rate
size of the G2/M population following TGFβ1 treatment ([8]; PLC/PRF/5 TTP knock-down cells): remained unchanged
relative size of the G1 and sub G1 populations [8, 12]: decreased
relative size of the S phase population [8, 12]: increased

— patent publication US8703419B2, “Method for diagnosis/prognosis of cancers using an epigenetic marker consisting of a specific single CpG site in TTP promoter and treatment of cancers by regulating its epigenetic status” (Korea Research Institute of Bioscience and Biotechnology, priority 2009, dated 2014)
